Series [1] relates to M. tuberculosis H37Rv expressing the green fluorescent protein (H37Rv-GFP). In words: microbe, parasite or virus in culture. It is filed as cell-based. To be noted: for MIC50: Mycobacterium tuberculosis, H37RV, 120 h, read-out: QUM (MIC50).
Series [2] relates to Raw 264.7 cells infected with H37Rv-GFP. In words: microbe, parasite or virus in culture. In kind it is cell-based, M. tuberculosis. The note with it: for MIC50: Mycobacterium tuberculosis, H37RV, 120 h, read-out: QIM (MIC50).

As usually defined, the melting point is the temperature of the solid-liquid transition.

Converted amounts (≈) assume the structure as drawn.

Consider `O=C(Nc1ccccc1)c1cc2nc(N3CCCCC3)sc2s1` [Compound 25], for which the melting point came out at 222.6 °C. The MIC50 in series [1] was over 20 µM. Moreover, the MIC50 in series [2] is 1 to 20 µM (≈ 0.343 to 6.87 µg/mL).

`CCOC(=O)c1ccc(NC(=O)c2cc3sc(N4CCOCC4)nc3s2)cc1` [Compound 108] returned a melting point of 274 °C. For the same molecule, the MIC50 in series [1] lay in the range of 1 to 20 µM (≈ 0.418 to 8.35 µg/mL). In addition, in series [2], the MIC50 was under 1 µM.

Molecule `N#Cc1ccc(NC(=O)c2cc3sc(N4CCCCC4)nc3s2)cc1` [Compound 54] came in with a melting point of 177 °C. Besides, the MIC50 in series [1] is under 1 µM. Also, the MIC50 in series [2] is under 1 µM.

`CCC1CN(c2nc3sc(C(=O)Nc4ccc5oc(C)nc5c4)cc3s2)CCO1` (stereo not drawn) [Compound 153] showed a melting point of 214 °C. The MIC50 in series [1] was under 1 µM. Besides, the MIC50 in series [2] was under 1 µM.

Molecule `O=C(Nc1ccc(OCc2ccccc2)cc1)c1cc2nc(N3CCCCC3)sc2s1` [Compound 11] returned a melting point of 223 °C. In series [1], the MIC50 was over 20 µM. For the same molecule, in series [2], the MIC50 was over 20 µM.

In turn, `Cc1nnc(-c2ccc(NC(=O)c3cc4sc(N5CCOCC5)nc4s3)cc2Cl)o1` [Compound 148] yielded a melting point of 248 °C. Moreover, in series [1], the MIC50 is over 20 µM. In series [2], the MIC50 is over 20 µM.

In turn, `O=C(Nc1ccc(C(F)(F)F)cc1)c1cc2sc(N3CCCCC3)nc2s1` [Compound 41] yielded a melting point of 289.2 °C. Moreover, in series [1], the MIC50 is over 20 µM. Moreover, the MIC50 in series [2] was under 1 µM.

`Cc1nc2cc(NC(=O)c3cc4sc(N5CCC(C(=O)N(C)C)C5)nc4s3)ccc2o1` (stereo not drawn) [Compound 192]: the melting point came to 274 °C. For the same molecule, in series [1], the MIC50 lay in the range of 1 to 20 µM (≈ 0.456 to 9.11 µg/mL). Moreover, the MIC50 in series [2] lay in the range of 1 to 20 µM (≈ 0.456 to 9.11 µg/mL).

With `Cc1nc2cc(NC(=O)C3CCc4nc(N5CCOCC5)sc4C3)ccc2o1` (stereo not drawn) [Compound 170], the melting point stood at 239 °C. For the same molecule, the MIC50 in series [1] was over 20 µM. The MIC50 in series [2] is over 20 µM.

Molecule `COc1ccc(CN(c2nc3sc(C(=O)Nc4ccc(OC)cc4)cc3s2)C(C)C)cc1` [Compound 121] yielded a melting point of 131 °C. Besides, the MIC50 in series [1] is over 20 µM. Further, the MIC50 in series [2] is under 1 µM.

The molecule `Cc1nc2cc(NC(=O)c3cc4sc(N5CCOCC5)nc4s3)c(F)cc2o1` [Compound 181] registered a melting point of 287 °C. In addition, in series [1], the MIC50 was over 20 µM. Moreover, the MIC50 in series [2] was over 20 µM.

In turn, `Cc1nc2cc(CCNC(=O)c3cc4sc(N5CCOCC5)nc4s3)ccc2o1` [Compound 177] had a melting point of 219.4 °C. Moreover, the MIC50 in series [1] fell in the range of 1 to 20 µM (≈ 0.429 to 8.57 µg/mL). In series [2], the MIC50 is under 1 µM.

`COc1ccc(OCCNC(=O)c2cc3sc(N4CCOCC4)nc3s2)cc1` [Compound 82] yielded a melting point of 172.1 °C. In series [1], the MIC50 was over 20 µM. In addition, in series [2], the MIC50 fell in the range of 1 to 20 µM (≈ 0.42 to 8.39 µg/mL).

`COc1ccc(NC(=O)c2cc3sc(NCc4ccc(OC)nc4)nc3s2)cc1` [Compound 104]: the melting point amounted to 230.9 °C. Further, the MIC50 in series [1] was under 1 µM. Also, the MIC50 in series [2] was under 1 µM.

In turn, `O=C(Nc1ccn(-c2ccccc2)n1)c1cc2sc(N3CCOCC3)nc2s1` [Compound 165] showed a melting point of 257.8 °C. For the same molecule, in series [1], the MIC50 was over 20 µM. Moreover, the MIC50 in series [2] was 1 to 20 µM (≈ 0.412 to 8.23 µg/mL).

`COc1ccc(NC(=O)c2csc3nc(N4CCCCC4)sc23)cc1` [Compound 73] came in with a melting point of 209.8 °C. Also, the MIC50 in series [1] is over 20 µM. In series [2], the MIC50 is over 20 µM.

`O=C(Nc1cccc(Oc2ccccc2)c1)c1cc2sc(N3CCOCC3)nc2s1` [Compound 87] registered a melting point of 169.5 °C. Besides, the MIC50 in series [1] lay within 1 to 20 µM (≈ 0.438 to 8.75 µg/mL). Moreover, the MIC50 in series [2] lay within 1 to 20 µM (≈ 0.438 to 8.75 µg/mL).

As for `O=C(Nc1ccc(F)nc1)c1cc2sc(N3CCOCC3)nc2s1` [Compound 84], the melting point turned out to be 262.3 °C. In series [1], the MIC50 is under 1 µM. The MIC50 in series [2] is under 1 µM.

In turn, `O=C(Nc1ccc(F)cc1)c1cc2sc(N3CCC(O)CC3)nc2s1` [Compound 134] came in with a melting point of 241.7 °C. In series [1], the MIC50 was under 1 µM. The MIC50 in series [2] is under 1 µM.

On to `COc1ccc(NC(=O)c2cc3sc(N4CCC(C(N)=O)CC4)nc3s2)cc1` [Compound 126], for which the melting point came to 276.1 °C. Also, the MIC50 in series [1] lay within 1 to 20 µM (≈ 0.417 to 8.33 µg/mL). Further, the MIC50 in series [2] was over 20 µM.

As for `COC1CCN(c2nc3sc(C(=O)Nc4ccc5oc(C)nc5c4)cc3s2)CC1` [Compound 124], the melting point amounted to 237.9 °C. Moreover, the MIC50 in series [1] is under 1 µM. For the same molecule, in series [2], the MIC50 is under 1 µM.

The molecule `COc1ccc(CNC(=O)c2cc3sc(N4CCCCC4)nc3s2)cc1` [Compound 59] displayed a melting point of 142 °C. The MIC50 in series [1] was over 20 µM. Also, the MIC50 in series [2] was over 20 µM.

Take `Cc1nc2cc(NC(=O)c3sc4nc(N5CCOCC5)sc4c3-c3ccccc3)ccc2o1` [Compound 166]: the melting point came out at 285 °C. Also, in series [1], the MIC50 is over 20 µM. In series [2], the MIC50 was over 20 µM.

`CN(C(=O)c1cc2nc(N3CCCCC3)sc2s1)c1ccc(F)c(F)c1` [Compound 20] came in with a melting point of 170.1 °C. In addition, in series [1], the MIC50 was 1 to 20 µM (≈ 0.393 to 7.87 µg/mL). In series [2], the MIC50 is over 20 µM.

For `Cc1nnc(-c2ccc(NC(=O)c3cc4sc(N5CCOCC5)nc4s3)cc2)o1` [Compound 103], the melting point stood at 319.1 °C. Besides, the MIC50 in series [1] is under 1 µM. Besides, the MIC50 in series [2] was under 1 µM.

In turn, `COc1ccc(CNc2nc3sc(C(=O)Nc4ccc(OC)cc4)cc3s2)cc1` [Compound 63] had a melting point of 243 °C. Besides, in series [1], the MIC50 is over 20 µM. The MIC50 in series [2] was under 1 µM.

In turn, `CCC1COCCN1c1nc2sc(C(=O)Nc3ccc4oc(C)nc4c3)cc2s1` (stereo not drawn) [Compound 151] came in with a melting point of 176 °C. In series [1], the MIC50 lay in the range of 1 to 20 µM (≈ 0.429 to 8.57 µg/mL). Further, the MIC50 in series [2] was under 1 µM.

Take `Cc1nc2cc(NC(=O)c3cc4sc(N5CCC(CO)CC5)nc4s3)ccc2o1` [Compound 144]: the melting point worked out at 196.4 °C. Also, in series [1], the MIC50 is under 1 µM. In addition, the MIC50 in series [2] was under 1 µM.

On to `COc1ccc(NC(=O)c2cc3sc(N4CCCCC4)nc3s2)cc1` [Compound 35], for which the melting point is 235 °C. Further, in series [1], the MIC50 is under 1 µM. Also, in series [2], the MIC50 is under 1 µM.

`COc1ccc(NC(=O)c2cc3ncsc3s2)cc1` [Compound 21] returned a melting point of 236 °C. The MIC50 in series [1] is over 20 µM. Besides, the MIC50 in series [2] was over 20 µM.

In turn, `COc1ccc(NC(=O)c2ccc3nc(N4CCCCC4)sc3c2)cc1` [Compound 5] returned a melting point of 214 °C. Also, in series [1], the MIC50 was over 20 µM. Besides, in series [2], the MIC50 is over 20 µM.

`O=C(Nc1ccc(F)cc1)c1cc2nc(N3CCCCC3)sc2s1` [Compound 8] gave a melting point of 218 °C. In addition, in series [1], the MIC50 was in the range of 1 to 20 µM (≈ 0.361 to 7.23 µg/mL). Further, the MIC50 in series [2] was in the range of 1 to 20 µM (≈ 0.361 to 7.23 µg/mL).

`COc1ccc(NC(=O)c2cc3sc(N4CC5CC4CN5)nc3s2)cc1` (stereo not drawn) [Compound 94] displayed a melting point of 161 °C. Also, in series [1], the MIC50 was over 20 µM. For the same molecule, the MIC50 in series [2] was over 20 µM.

Molecule `Cc1nc2cc(NC(=O)c3cc4sc(N5CCC(COc6ccc(Cl)cc6)CC5)nc4s3)ccc2o1` [Compound 195] came in with a melting point of 256 °C. In addition, in series [1], the MIC50 is over 20 µM. Besides, the MIC50 in series [2] is under 1 µM.

Regarding `O=C(Nc1ccc(F)cc1)c1cc2sc(N3CCNCC3)nc2s1` [Compound 139], the melting point worked out at 247.5 °C. Moreover, the MIC50 in series [1] was in the range of 1 to 20 µM (≈ 0.362 to 7.25 µg/mL). In addition, the MIC50 in series [2] lay in the range of 1 to 20 µM (≈ 0.362 to 7.25 µg/mL).

For `CN(C)C(=O)C1CCN(c2nc3sc(C(=O)Nc4ccc5oc(CCc6ccc(F)cc6)nc5c4)cc3s2)CC1` [Compound 197], the melting point was 259 °C. In addition, the MIC50 in series [1] was over 20 µM. For the same molecule, the MIC50 in series [2] is under 1 µM.

In the case of `O=C(Nc1ccc(N2CCC(Cc3ccc(F)cc3)CC2)cc1)c1cc2sc(N3CCOCC3)nc2s1` [Compound 183], the melting point worked out at 246 °C. Besides, the MIC50 in series [1] was over 20 µM. For the same molecule, in series [2], the MIC50 was under 1 µM.

As for `Cc1nc2ccc(NC(=O)c3cc4sc(N5CCOCC5)nc4s3)cc2o1.Cl` [Compound 86], the melting point came out at 272.2 °C. Further, the “QUM (MIC50, uM)” value in series [1] is “+++ (+++ indicates <1 uM)”. Further, the “QIM (MIC50, uM)” value in series [2] is given as “+++ (+++ indicates <1 uM)”.

Regarding `CN(C)C(=O)C1CCN(c2nc3sc(C(=O)Nc4ccc(F)nc4)cc3s2)CC1` [Compound 137], the melting point was determined as 295.9 °C. The MIC50 in series [1] was under 1 µM. In addition, the MIC50 in series [2] lay within 1 to 20 µM (≈ 0.434 to 8.67 µg/mL).

On to `O=C(Nc1ccc(-c2ccccc2)cc1)c1cc2sc(N3CCCCC3)nc2s1` [Compound 39], for which the melting point came out at 231.1 °C. Also, the MIC50 in series [1] is over 20 µM. In series [2], the MIC50 is under 1 µM.

With `O=C(Nc1cc(-c2ccccc2)[nH]n1)c1cc2sc(N3CCOCC3)nc2s1` [Compound 160], the melting point was determined as 305 °C. In addition, the MIC50 in series [1] was over 20 µM. In addition, the MIC50 in series [2] is under 1 µM.

In turn, `Cc1nc2cc(NC(=O)c3cc4sc(N5CCOCC5)nc4s3)ccc2o1` [Compound 83] had a melting point of 268.3 °C. Also, the MIC50 in series [1] is under 1 µM. Moreover, the MIC50 in series [2] is under 1 µM.

Consider `Cc1nc2cc(NC(=O)c3cc4sc(N5CCOCC5)nc4s3)c(Cl)cc2o1` [Compound 141], for which the melting point worked out at 277 °C. The MIC50 in series [1] is over 20 µM. For the same molecule, in series [2], the MIC50 is over 20 µM.

`CC(C)(C)OC(=O)Nc1cc2sc(N3CCCCC3)nc2s1` [Compound 81] registered a melting point of 157 °C. The MIC50 in series [1] was over 20 µM. Moreover, the MIC50 in series [2] was over 20 µM.

For the origin of these results see US11279714B2, “Anti-infective compounds” (priority 2014, dated 2022).
